Data published in patent US6967196B1, “Sulfonamide compounds and uses thereof” (Bristol-Myers Squibb Company, priority 1999, dated 2005).
Read-outs that look alike come from different tables or passages of the source.

System: amyloid β production in transfected H4 (human neuroglioma) cells stably expressing APP constructs
Test: In vitro cell-based assay of inhibitors of amyloid β production (ELISA)
Details: transfected H4 cells stably expressing APP, amyloid β in medium by ELISA, read-out: ACTIVITY (IC50, inhibition of amyloid β production)
How it was run: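 Aβ secreted into the medium was read by sandwich ELISA (monoclonal capture for the Aβ C-terminus, polyclonal detection for the N-terminus) and calibrated on a standard curve. Before this, APP-expressing H4 cells were exposed to compound for ~16 h at an initial 10-100 μM, with actives then retested in dose-response.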

[1] = approximately 16 hours incubation

Row | Substance | IC50 (approx. 16 h incubation) | IC50 [1]
1 | N-{3-[2-({[(4-chlorophenyl)sulfonyl]-2,5-difluoroanilino}methyl)phenoxy]propyl}-2-iodo-N-methylbenzamide [Example 716] | 100 to 500 nM | –
2 | N-{3-[2-({[(4-chlorophenyl)sulfonyl]-2,5-difluoroanilino}methyl)phenoxy]propyl}-2-methoxy-N-methylbenzamide [Example 775] | 100 to 500 nM | –
3 | N-{3-[2-({[(4-chlorophenyl)sulfonyl]-2,5-difluoroanilino}methyl)phenoxy]propyl}-3,4,5-trimethoxy-N-methylbenzamide [Example 989] | – | > 500 nM
4 | N-{3-[2-({[(4-chlorophenyl)sulfonyl]-2,5-difluoroanilino}methyl)phenoxy]propyl}-3,4-dimethoxy-N-methylbenzamide [Example 960] | – | > 500 nM
5 | N-{3-[2-({[(4-chlorophenyl)sulfonyl]-2,5-difluoroanilino}methyl)phenoxy]propyl}-3,5-difluoro-N-methylbenzamide [Example 1000] | – | > 500 nM
6 | N-{3-[2-({[(4-chlorophenyl)sulfonyl]-2,5-difluoroanilino}methyl)phenoxy]propyl}-3-fluoro-N-methylbenzamide [Example 862] | – | 100 to 500 nM
7 | N-{3-[2-({[(4-chlorophenyl)sulfonyl]-2,5-difluoroanilino}methyl)phenoxy]propyl}-3-methoxy-N-methylbenzamide [Example 814] | – | 100 to 500 nM
8 | N-{3-[2-({[(4-chlorophenyl)sulfonyl]-2,5-difluoroanilino}methyl)phenoxy]propyl}-4-ethoxy-N-methylbenzamide [Example 1010] | – | > 500 nM
9 | N-{3-[2-({[(4-chlorophenyl)sulfonyl]-2,5-difluoroanilino}methyl)phenoxy]propyl}-4-fluoro-N-methylbenzamide [Example 747] | 100 to 500 nM | –
10 | N-{3-[2-({[(4-chlorophenyl)sulfonyl]-2,5-difluoroanilino}methyl)phenoxy]propyl}-4-iodo-N-methylbenzamide [Example 765] | 100 to 500 nM | –
11 | N-{3-[2-({[(4-chlorophenyl)sulfonyl]-2,5-difluoroanilino}methyl)phenoxy]propyl}-N,2-dimethylbenzamide [Example 680] | 100 to 500 nM | –
12 | N-{3-[2-({[(4-chlorophenyl)sulfonyl]-2,5-difluoroanilino}methyl)phenoxy]propyl}-N,3-dimethylbenzamide [Example 696] | 100 to 500 nM | –
13 | N-{3-[2-({[(4-chlorophenyl)sulfonyl]-2,5-difluoroanilino}methyl)phenoxy]propyl}-N,4-dimethyl-3-nitrobenzamide [Example 907] | – | > 500 nM
14 | N-{3-[2-({[(4-chlorophenyl)sulfonyl]-2,5-difluoroanilino}methyl)phenoxy]propyl}-N,4-dimethylbenzamide [Example 893] | – | > 500 nM
15 | N-{3-[2-({[(4-chlorophenyl)sulfonyl]-2,5-difluoroanilino}methyl)phenoxy]propyl}-N-methyl-1,3-benzodioxole-5-carboxamide [Example 903] | – | > 500 nM
16 | N-{3-[2-({[(4-chlorophenyl)sulfonyl]-2,5-difluoroanilino}methyl)phenoxy]propyl}-N-methyl-1-naphthamide [Example 821] | – | 100 to 500 nM
17 | N-{3-[2-({[(4-chlorophenyl)sulfonyl]-2,5-difluoroanilino}methyl)phenoxy]propyl}-N-methyl-2-naphthamide [Example 810] | – | 100 to 500 nM
18 | N-{3-[2-({[(4-chlorophenyl)sulfonyl]-2,5-difluoroanilino}methyl)phenoxy]propyl}-N-methyl-2-phenylcyclopropanecarboxamide [Example 917] | – | > 500 nM
19 | N-{3-[2-({[(4-chlorophenyl)sulfonyl]-2,5-difluoroanilino}methyl)phenoxy]propyl}-N-methyl-3-(trifluoromethyl)benzamide [Example 891] | – | > 500 nM
20 | N-{3-[2-({[(4-chlorophenyl)sulfonyl]-2,5-difluoroanilino}methyl)phenoxy]propyl}-N-methyl-4-(trifluoromethoxy)benzamide [Example 873] | – | 100 to 500 nM
21 | N-{3-[2-({[(4-chlorophenyl)sulfonyl]-2,5-difluoroanilino}methyl)phenoxy]propyl}-N-methyl-4-(trifluoromethyl)benzamide [Example 898] | – | > 500 nM
22 | N-{3-[2-({[(4-chlorophenyl)sulfonyl]-2,5-difluoroanilino}methyl)phenoxy]propyl}-N-methyl-4-nitrobenzamide [Example 872] | – | 100 to 500 nM
23 | N-{3-[2-({[(4-chlorophenyl)sulfonyl]-2,5-difluoroanilino}methyl)phenoxy]propyl}-N-methylbenzamide [Example 800] | 100 to 500 nM | –
24 | N-{3-[2-({[(4-chlorophenyl)sulfonyl]-2,5-difluoroanilino}methyl)phenoxy]propyl}-N-methylbutanamide [Example 638] | 100 to 500 nM | –

Row | Substance | IC50 (approx. 16 h incubation) | IC50 [1]
25 | N-{4-[2-(1-{[(4-chlorophenyl)sulfonyl]-2,5-difluoroanilino}ethyl)phenoxy]butyl}-2-cyclohexyl-N-ethylacetamide [Example 785] | 100 to 500 nM | –
26 | N-{4-[2-(1-{[(4-chlorophenyl)sulfonyl]-2,5-difluoroanilino}ethyl)phenoxy]butyl}-2-ethyl-N-methylhexanamide [Example 676] | 100 to 500 nM | –
27 | N-{4-[2-(1-{[(4-chlorophenyl)sulfonyl]-2,5-difluoroanilino}ethyl)phenoxy]butyl}-3-cyclopentyl-N-ethylpropanamide [Example 943] | – | > 500 nM
28 | N-{4-[2-(1-{[(4-chlorophenyl)sulfonyl]-2,5-difluoroanilino}ethyl)phenoxy]butyl}-N,2,4-trimethylpentanamide [Example 700] | 100 to 500 nM | –
29 | N-{4-[2-(1-{[(4-chlorophenyl)sulfonyl]-2,5-difluoroanilino}ethyl)phenoxy]butyl}-N-ethyl-2-thiophenecarboxamide [Example 756] | 100 to 500 nM | –
30 | N-{4-[2-(1-{[(4-chlorophenyl)sulfonyl]-2,5-difluoroanilino}ethyl)phenoxy]butyl}-N-ethylacrylamide [Example 739] | 100 to 500 nM | –
31 | N-{4-[2-(1-{[(4-chlorophenyl)sulfonyl]-2,5-difluoroanilino}ethyl)phenoxy]butyl}-N-ethylbenzamide [Example 767] | 100 to 500 nM | –
32 | N-{4-[2-(1-{[(4-chlorophenyl)sulfonyl]-2,5-difluoroanilino}ethyl)phenoxy]butyl}-N-ethylcyclopropanecarboxamide [Example 959] | – | > 500 nM
33 | N-{4-[2-(1-{[(4-chlorophenyl)sulfonyl]-2,5-difluoroanilino}ethyl)phenoxy]butyl}-N-methyl-1-adamantanecarboxamide [Example 846] | – | 100 to 500 nM
34 | N-{4-[2-(1-{[(4-chlorophenyl)sulfonyl]-2,5-difluoroanilino}ethyl)phenoxy]butyl}-N-methylacrylamide [Example 843] | – | 100 to 500 nM
35 | S-ethyl 2-[2-(1-{[(4-chlorophenyl)sulfonyl]-2,5-difluoroanilino}ethyl)phenoxy]ethyl(methyl)thiocarbamate [Example 856] | – | 100 to 500 nM
36 | S-ethyl 4-[2-(1-{[(4-chlorophenyl)sulfonyl]-2,5-difluoroanilino}ethyl)phenoxy]butyl(ethyl)thiocarbamate [Example 790] | 100 to 500 nM | –
37 | S-ethyl 4-[2-(1-{[(4-chlorophenyl)sulfonyl]-2,5-difluoroanilino}ethyl)phenoxy]ethyl(ethyl)thiocarbamate [Example 830] | – | 100 to 500 nM
38 | S-ethyl-3-[2-({[(4-chlorophenyl)sulfonyl]-2,5-difluoroanilino}methyl)phenoxy]propyl(methyl)thiocarbamate [Example 757] | 100 to 500 nM | –
39 | S-methyl 2-[2-(1-{[(4-chlorophenyl)sulfonyl]-2,5-difluoroanilino}ethyl)phenoxy]ethyl(ethyl)thiocarbamate [Example 771] | 100 to 500 nM | –
40 | S-methyl 2-[2-(1-{[(4-chlorophenyl)sulfonyl]-2,5-difluoroanilino}ethyl)phenoxy]ethyl(methyl)thiocarbamate [Example 983] | – | > 500 nM
41 | S-methyl 4-[2-(1-{3-[2-(1-{[(4-chlorophenyl)sulfonyl]-2,5-difluoroanilino}ethyl)phenoxy]butyl(ethyl)thiocarbamate [Example 714] | 100 to 500 nM | –
42 | S-{3-[2-({[(4-chlorophenyl)sulfonyl]-2,5-difluoroanilino}methyl)phenoxy]propyl} ethanethioate [Example 1014] | – | > 500 nM
43 | [2-((1R)-1-{[(4-chlorophenyl)sulfonyl]-2,5-difluoroanilino}ethyl)-5-fluorophenyl]methanesulfonic acid [Example 1009] | – | > 500 nM
44 | [({4-[2-((1R)-1-{[(4-chlorophenyl)sulfonyl]-2,5-difluoroanilino}ethyl)-5-fluorophenyl]butanoyl}amino)oxy]acetic acid [Example 1077] | – | > 500 nM
45 | benzyl 3-[2-(1-{[(4-chlorophenyl)sulfonyl]-2,5-difluoroanilino}ethyl)phenoxy]propyl(methyl)carbamate [Example 678] | 100 to 500 nM | –
46 | ethyl 3-(2-{[(phenylsulfonyl)anilino]methyl}phenyl)propanoate [Example 995] | – | > 500 nM
47 | ethyl (2E)-3-[2-({[(4-chlorophenyl)sulfonyl]anilino}methyl)phenyl]-2-propenoate [Example 971] | – | > 500 nM
48 | ethyl (2R)-2-{[(4-chlorophenyl)sulfonyl]-2,5-difluoroanilino}propanoate [Example 1060] | – | > 500 nM
